According to ChEMBL document CHEMBL6114996, “Design, synthesis, and biological evaluation of β-carboline derivatives as ABCB1 inhibitors for reversing multidrug resistance” (Eur J Med Chem, 2025):

Experiments:
[1] = test system: SW620/AD300; experiment: Cytotoxicity against human SW620/AD300 cells assessed as reduction in cell viability at 20 uM incubated for 72 hrs by CCK-8 assay relative to control; assay type: functional
[2] = Reversal fold, ratio of PTX IC50 to PTX IC50 in presence of test compound for reversal of multi-drug resistance in human SW620/AD300 cells incubated for 72 hrs by CCK-8 assay (reference value: 1.0); assay type: functional
[3] = Toxicity in male BALB/c nude mouse xenografted with ABCB1 overexpressing human SW620/AD300 cells assessed as body weight loss at 50 mg/kg administered every 3 days and measured after 14 days; assay type: organism-based; settings: in vivo, 336 h, time 14 day
[4] = biological target: T1, ATP-dependent translocase ABCB1 (Homo sapiens, UniProt P08183); experiment: Inhibition of ABCB1 in human SW620/AD300 cells assessed as accumulation of Rhodamine-123 by measuring fluorescence intensity incubated for 24 hrs by flow cytometric analysis; assay type: cell-based; settings: sw620/ad300, 24 h, at 5 to 20 µM, dose 5-20 µM
T1 sequence (P08183 whole entry): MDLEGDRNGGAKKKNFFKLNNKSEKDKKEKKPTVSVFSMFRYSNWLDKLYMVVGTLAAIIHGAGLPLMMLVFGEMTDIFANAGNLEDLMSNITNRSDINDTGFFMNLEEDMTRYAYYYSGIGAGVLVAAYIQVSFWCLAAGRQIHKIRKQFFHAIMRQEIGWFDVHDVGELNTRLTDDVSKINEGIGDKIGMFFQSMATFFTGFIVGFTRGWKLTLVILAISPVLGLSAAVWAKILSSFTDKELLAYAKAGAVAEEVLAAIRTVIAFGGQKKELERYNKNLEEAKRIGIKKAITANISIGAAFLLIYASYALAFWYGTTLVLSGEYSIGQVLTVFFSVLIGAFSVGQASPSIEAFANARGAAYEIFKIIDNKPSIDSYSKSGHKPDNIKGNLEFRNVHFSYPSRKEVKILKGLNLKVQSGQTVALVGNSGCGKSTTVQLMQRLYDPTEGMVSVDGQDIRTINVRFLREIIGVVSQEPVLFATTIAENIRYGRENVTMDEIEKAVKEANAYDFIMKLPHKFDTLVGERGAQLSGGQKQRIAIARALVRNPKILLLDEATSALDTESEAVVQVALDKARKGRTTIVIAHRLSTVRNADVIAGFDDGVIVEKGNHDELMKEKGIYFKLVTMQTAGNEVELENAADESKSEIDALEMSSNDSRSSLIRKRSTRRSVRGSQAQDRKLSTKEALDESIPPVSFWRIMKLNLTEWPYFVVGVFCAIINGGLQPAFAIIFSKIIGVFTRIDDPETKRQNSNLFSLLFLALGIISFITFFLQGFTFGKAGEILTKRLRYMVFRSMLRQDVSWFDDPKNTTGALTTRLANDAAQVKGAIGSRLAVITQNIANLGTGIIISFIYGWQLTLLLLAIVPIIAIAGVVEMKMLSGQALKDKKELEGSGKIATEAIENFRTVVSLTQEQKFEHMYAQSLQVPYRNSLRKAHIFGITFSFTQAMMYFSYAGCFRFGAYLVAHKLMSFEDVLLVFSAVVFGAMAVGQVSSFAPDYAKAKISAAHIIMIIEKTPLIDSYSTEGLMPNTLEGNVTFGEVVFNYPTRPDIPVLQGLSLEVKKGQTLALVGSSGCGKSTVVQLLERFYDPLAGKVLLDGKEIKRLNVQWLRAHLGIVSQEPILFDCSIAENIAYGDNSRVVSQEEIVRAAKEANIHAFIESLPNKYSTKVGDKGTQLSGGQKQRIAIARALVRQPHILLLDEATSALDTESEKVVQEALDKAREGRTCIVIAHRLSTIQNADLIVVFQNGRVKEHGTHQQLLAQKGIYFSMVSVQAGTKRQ

[5] = Toxicity in male BALB/c nude mouse xenografted with ABCB1 overexpressing human SW620/AD300 cells assessed as cell necrosis in liver measured after 14 days in presence of paclitaxel by H and E staining based analysis; settings: 336 h, time 14 day
[6] = Toxicity in male BALB/c nude mouse xenografted with ABCB1 overexpressing human SW620/AD300 cells assessed as cell necrosis in kidney at 50 mg/kg administered every 3 days and measured after 14 days by H and E staining based analysis; assay type: organism-based; settings: in vivo, 336 h, time 14 day
[7] = Toxicity in male BALB/c nude mouse xenografted with ABCB1 overexpressing human SW620/AD300 cells assessed as cell necrosis in spleen at 50 mg/kg administered every 3 days and measured after 14 days by H and E staining based analysis; assay type: organism-based; settings: in vivo, 336 h, time 14 day
[8] = Toxicity in male BALB/c nude mouse xenografted with ABCB1 overexpressing human SW620/AD300 cells assessed as cell necrosis in kidney measured after 14 days in presence of paclitaxel by H and E staining based analysis; assay type: tissue-based; settings: 336 h, time 14 day
[9] = Toxicity in male BALB/c nude mouse xenografted with ABCB1 overexpressing human SW620/AD300 cells assessed as body weight loss measured after 14 days in presence of paclitaxel; settings: 336 h, time 14 day
[10] = Toxicity in male BALB/c nude mouse xenografted with ABCB1 overexpressing human SW620/AD300 cells assessed as cell necrosis in spleen measured after 14 days in presence of paclitaxel by H and E staining based analysis; settings: 336 h, time 14 day
[11] = Toxicity in male BALB/c nude mouse xenografted with ABCB1 overexpressing human SW620/AD300 cells assessed as cell necrosis in liver at 50 mg/kg administered every 3 days and measured after 14 days by H and E staining based analysis; assay type: organism-based; settings: in vivo, 336 h, time 14 day
[12] = biological target: T1, ATP-dependent translocase ABCB1; experiment: Binding affinity to ABCB1 (unknown origin) in human SW620/AD300 cells assessed as thermal stabilization at 20 uM at 40 to 65 degreeC incubated for 30 mins by CETSA; assay type: cell-based; settings: sw620/ad300, 0.5 h

Compound	Activity [1] [%]	Ratio IC50 [2]	also measured
COc1cc(OC)cc(-c2nccc3c2[nH]c2ccccc23)c1	<80	–	–
FC(F)(F)c1ccc(-c2nccc3c2[nH]c2ccccc23)cc1	>80	3.2	–
N#Cc1cccc(-c2nccc3c2[nH]c2ccccc23)c1	>80	2.2	–
CCc1ccc(-c2nc(C(=O)OC)cc3c2[nH]c2ccccc23)cc1	>80	–	–
CC(C)Cc1nc(C(=O)OCc2ccccc2)cc2c1[nH]c1ccccc12	>80	4	–
CC(C)c1ccc(-c2nccc3c2[nH]c2ccccc23)cc1	<80	–	–
COc1ccc(-c2nccc3c2[nH]c2ccccc23)cc1	>80	37.8	–
COc1ccc(-c2nccc3c4ccccc4n(C)c23)cc1	–	–	Activity [3]: Non-toxic; inhibition (INH) [4]: Dose-dependent-effect; Activity [5]: Non-toxic; Activity [6]: Non-toxic; Activity [7]: Non-toxic; Activity [8]: Non-toxic; Activity [9]: Non-toxic; Activity [10]: Non-toxic; Activity [11]: Non-toxic; Activity [12]: Active
CCn1c2ccccc2c2ccnc(-c3ccc(C(F)(F)F)cc3)c21	>80	14.8	–
Cc1nc(-c2ccc(-c3nccc4c3[nH]c3ccccc34)cc2)no1	>80	27.5	–
COc1ccc(-c2nccc3c2[nH]c2cc(OC)ccc23)cc1	80	–	–
COc1ccc(-c2nccc3c4ccccc4n(Cc4ccccc4)c23)cc1	<80	–	–
CC(C)Cc1nccc2c3ccccc3n(CC(C)C)c12	<80	–	–
Cc1cccc2c1[nH]c1c(CC(C)C)nccc12	<80	–	–
Cc1ccc(-c2nccc3c2[nH]c2ccccc23)cc1	<80	–	–
CC(C)Cc1nccc2c3ccccc3n(Cc3ccccc3)c12	>80	113.6	–
COc1ccc(-c2nccc3c2[nH]c2c(C)cccc23)cc1	<80	–	–
CCn1c2ccccc2c2ccnc(-c3ccc(OC)cc3)c21	>80	12.3	–
CCc1ccc(-c2nccc3c2[nH]c2ccccc23)cc1	<80	–	–
CC(C)Cc1nccc2c1[nH]c1ccccc12	>80	3.2	–
CCc1nc(C(=O)OC)cc2c1[nH]c1ccccc12	>80	1.3	–
COc1ccc(-c2nccc3c4ccccc4n(Cc4ccc(C)cc4)c23)cc1	>80	25.6	–
CCc1ccc(-c2nccc3c4ccccc4n(CC)c23)cc1	<80	–	–
COc1ccc(-c2nccc3c2[nH]c2ccc(OC)cc23)cc1	<80	–	–

Compound	Activity [1] [%]	Ratio IC50 [2]	also measured
CCc1ccc(-c2nc(C(=O)OCc3ccccc3)cc3c2[nH]c2ccccc23)cc1	>80	–	–
CCC(CC)c1nccc2c3ccccc3n(C)c12	<80	–	–
C#CCn1c2ccccc2c2ccnc(CC(C)C)c21	>80	15.9	–
CCn1c2ccccc2c2ccnc(CC(C)C)c21	<80	–	–
CC(C)Cc1nccc2c3ccccc3n(C)c12	<80	–	–
CCC(CC)c1nccc2c1[nH]c1ccccc12	>80	31	–
CCOC(=O)c1cc2c([nH]c3ccccc32)c(CC(C)C)n1	>80	47.4	–
Oc1ccc(-c2nccc3c2[nH]c2ccccc23)cc1	>80	1.6	–
COc1ccc2[nH]c3c(CC(C)C)nccc3c2c1	<80	–	–
Cc1nc(-c2cccc(-c3nccc4c3[nH]c3ccccc34)c2)no1	>80	3.3	–
COc1ccc(-c2nccc3c4ccccc4n(Cc4ccccc4C)c23)cc1	<80	–	–
N#Cc1ccc(-c2nccc3c2[nH]c2ccccc23)cc1	>80	3.5	–
CCc1ccc(-c2nccc3c4ccccc4n(Cc4ccc(C)cc4)c23)cc1	>80	26.6	–
Cn1c2ccccc2c2ccnc(-c3ccc(C(F)(F)F)cc3)c21	>80	25.9	–
CCC(CC)c1nccc2c1[nH]c1ccc(OC)cc12	<80	–	–
COc1ccc(-c2nccc3c4ccccc4n(Cc4ccc(C(C)C)cc4)c23)cc1	>80	26.3	–
CCc1ccc(-c2nccc3c4ccccc4n(Cc4ccc(C(C)C)cc4)c23)cc1	<80	–	–
COC(=O)c1cc2c([nH]c3ccccc32)c(CC(C)C)n1	>80	2.7	–
CCc1ccc(-c2nccc3c4ccccc4n(Cc4ccccc4C)c23)cc1	<80	–	–
CCC(CC)c1nccc2c3ccccc3n(CC)c12	<80	–	–
Fc1ccc(-c2nccc3c2[nH]c2ccccc23)cc1	>80	5.3	–
COc1ccc2c(c1)[nH]c1c(CC(C)C)nccc12	<80	–	–
Clc1cc(Cl)cc(-c2nccc3c2[nH]c2ccccc23)c1	>80	7.3	–
CCc1ccc(-c2nccc3c4ccccc4n(C)c23)cc1	<80	–	–
